In patent US9044480B1, “Compositions and methods for treating HCV” (priority 2011, dated 2015):
Read-outs that look alike come from different tables or passages of the source.

Legend:
GT 1a replicon D168A = experiment: HCV subgenomic replicon system, GT 1a D168A; type: cell-based
Method: (§1) Phenotypic analyses of clinical samples were also performed. For replicon transient transfection assays, RNA was transcribed from linearized plasmid DNA using a TranscriptAid T7 transcription kit (Fermentas) and 15 μg RNA was electroporated into Huh7-derived cells. For EC50 determinations, various concentrations of Compound I were added to cells 1-2 hr after plating and the cells were cultured for 4 days, followed by measurement of luciferase activity with a luciferase assay system kit (Promega).

GT 1a replicon WT = experiment: HCV subgenomic replicon system, GT 1a WT; type: cell-based; conditions: Hepatitis C virus, GT1A
Method: as §1

[1] = test system: NS3 protease domain from GT 1a HCV-infected subjects in replicon shuttle vector; experiment: Replicon transient transfection EC50, NS3 protease domain from subjects cloned into shuttle vector, GT 1a; type: cell-based; conditions: for Fold Change: GT 1a; for EC50: Hepatitis C virus, GT1A
From the text: (§2) Viral RNA was isolated from the plasma of HCV-infected patients at baseline (Day 1) and Day 4 by using an automated (Abbott m2000) or manual (QIAgen QIAamp Viral RNA Mini Kit) method. Amplicons containing the NS3-4A region were generated by RT-PCR, and PCR fragments containing the first 250 amino acids of NS3 were generated in a second round of PCR. The NS3 domain fragment was subsequently cloned into pJET (Fermentas) vector for clonal sequencing or digested with restriction enzymes and cloned into the replicon shuttle vector for phenotypic analysis. The lower limit of detection of the RT-PCR amplification method restricted the analysis to patient samples with HCV RNA levels above ˜500-1000 IU/mL.
Phenotypic analyses of clinical samples were also performed. For replicon transient transfection assays, RNA was transcribed from linearized plasmid DNA using a TranscriptAid T7 transcription kit (Fermentas) and 15 μg RNA was electroporated into Huh7-derived cells. […]

GT 1a replicon R155G = experiment: HCV subgenomic replicon system, GT 1a R155G; type: cell-based
Method: as §1

GT 1a replicon R155K = experiment: HCV subgenomic replicon system, GT 1a R155K; type: cell-based
Method: as §1

Aqueous solubility = type: physicochemical
GT 1a replicon D168V = experiment: HCV subgenomic replicon system, GT 1a D168V; type: cell-based
Method: as §1

GT 1b replicon WT = experiment: HCV subgenomic replicon system, GT 1b WT; type: cell-based; conditions: Hepatitis C virus, GT1B
Method: as §1

GT 1b replicon D168V = experiment: HCV subgenomic replicon system, GT 1b D168V; type: cell-based
Method: as §1

[2] = test system: NS3 protease domain from GT 1b HCV-infected subjects in replicon shuttle vector; experiment: Replicon transient transfection EC50, NS3 protease domain from subjects cloned into shuttle vector, GT 1b; type: cell-based; conditions: for EC50: Hepatitis C virus, GT1B
From the text: as §2, §1

HCV R155K mutation = conditions: clinical trials and replicon cell assays (Bartels et al.; Lu et al.; Zhou et al.); cited from earlier work
HCV = conditions: R155K (danoprevir) or R155K/D168V (vaniprevir) mutants detected; cited from earlier work

Structure (SMILES): Cc1cnc(C(=O)N[C@H]2CCCCC/C=C\[C@@H]3C[C@@]3(C(=O)NS(=O)(=O)C3CC3)NC(=O)[C@@H]3C[C@@H](Oc4nc5ccccc5c5ccccc45)CN3C2=O)cn1 [Compound I, (2R,6S,13aS,14aR,16aS,Z)—N-(cyclopropylsulfonyl)-6-(5-methylpyrazine-2-carboxamido)-5,16-dioxo-2-(phenanthridin-6-yloxy)-1,2,3,5,6,7,8,9,10,11,13a,14,14a,15,16,16a-hexadecahydrocyclopropa[e]pyrrolo[1,2-a][1,4]diazacyclopentadecine-14a-carboxamide]
- Fold Change (GT 1a replicon D168A; EC50 of GT 1a D168A vs GT 1a WT): 59
- EC50 (GT 1a replicon D168A; Hepatitis C virus, GT1A): 70.4 nM
- EC50 (GT 1a replicon WT): 1.19 nM
- Fold Change ([1]; EC50 Day 4 vs Day 1, Subject A, 200/100 mg dose group): 0.9
- Fold Change ([1]; EC50 Day 4 vs Day 1, Subject B, 200/100 mg dose group): 0.8
- Fold Change ([1]; EC50 Day 4 vs Day 1, Subject C, 200/100 mg dose group): 1.0
- Fold Change ([1]; EC50 Day 4 vs Day 1, Subject D, 200/100 mg dose group): 1.1
- Fold Change ([1]; EC50 Day 4 vs Day 1, Subject N, 100/100 mg dose group): 1.1
- Fold Change ([1]; EC50 Day 4 vs Day 1, Subject V, 50/100 mg dose group): 1.7
- EC50 ([1]; 24 h, read-out: EC50 Day 1, Subject A, GT 1a, 200/100 mg dose group, Day 1 (baseline) sample): 1.31 nM
- EC50 ([1]; 24 h, read-out: EC50 Day 1, Subject B, GT 1a, 200/100 mg dose group, Day 1 (baseline) sample): 1.36 nM
- EC50 ([1]; 24 h, read-out: EC50 Day 1, Subject C, GT 1a, 200/100 mg dose group, Day 1 (baseline) sample): 3.11 nM
- EC50 ([1]; 24 h, read-out: EC50 Day 1, Subject D, GT 1a, 200/100 mg dose group, Day 1 (baseline) sample): 2.42 nM
- EC50 ([1]; 24 h, read-out: EC50 Day 1, Subject E, GT 1a, 200/100 mg dose group, Day 1 (baseline) sample): 0.58 nM
- EC50 ([1]; 24 h, read-out: EC50 Day 1, Subject G, GT 1a, 200/100 mg dose group, Day 1 (baseline) sample): 2.68 nM
- EC50 ([1]; 24 h, read-out: EC50 Day 1, Subject H, GT 1a, 100/100 mg dose group, Day 1 (baseline) sample): 1.55 nM
- EC50 ([1]; 24 h, read-out: EC50 Day 1, Subject I, GT 1a, 100/100 mg dose group, Day 1 (baseline) sample): 1.43 nM
- EC50 ([1]; 24 h, read-out: EC50 Day 1, Subject L, GT 1a, 100/100 mg dose group, Day 1 (baseline) sample): 2.8 nM
- EC50 ([1]; 24 h, read-out: EC50 Day 1, Subject M, GT 1a, 100/100 mg dose group, Day 1 (baseline) sample): 0.91 nM
- EC50 ([1]; 24 h, read-out: EC50 Day 1, Subject N, GT 1a, 100/100 mg dose group, Day 1 (baseline) sample): 0.58 nM
- EC50 ([1]; 24 h, read-out: EC50 Day 1, Subject P, GT 1a, 50/100 mg dose group, Day 1 (baseline) sample): 0.81 nM
- EC50 ([1]; 24 h, read-out: EC50 Day 1, Subject Q, GT 1a, 50/100 mg dose group, Day 1 (baseline) sample): 0.68 nM
- EC50 ([1]; 24 h, read-out: EC50 Day 1, Subject R, GT 1a, 50/100 mg dose group, Day 1 (baseline) sample): 5.97 nM
- EC50 ([1]; 24 h, read-out: EC50 Day 1, Subject T, GT 1a, 50/100 mg dose group, Day 1 (baseline) sample): 0.45 nM
- EC50 ([1]; 24 h, read-out: EC50 Day 1, Subject U, GT 1a, 50/100 mg dose group, Day 1 (baseline) sample): 1.52 nM
- EC50 ([1]; 24 h, read-out: EC50 Day 1, Subject V, GT 1a, 50/100 mg dose group, Day 1 (baseline) sample): 1.01 nM
- EC50 ([1]; 24 h, read-out: EC50 Day 1, Subject W, GT 1a, 50/100 mg dose group, Day 1 (baseline) sample): 1.54 nM
- EC50 ([1]; 96 h, read-out: EC50 Day 4, Subject A, GT 1a, 200/100 mg dose group, Day 4 sample): 1.14 nM
- EC50 ([1]; 96 h, read-out: EC50 Day 4, Subject B, GT 1a, 200/100 mg dose group, Day 4 sample): 1.06 nM
- EC50 ([1]; 96 h, read-out: EC50 Day 4, Subject C, GT 1a, 200/100 mg dose group, Day 4 sample): 3.23 nM
- EC50 ([1]; 96 h, read-out: EC50 Day 4, Subject D, GT 1a, 200/100 mg dose group, Day 4 sample): 2.57 nM
- EC50 ([1]; 96 h, read-out: EC50 Day 4, Subject H, GT 1a, 100/100 mg dose group, Day 4 sample): 10.2 nM
- EC50 ([1]; 96 h, read-out: EC50 Day 4, Subject L, GT 1a, 100/100 mg dose group, Day 4 sample): 8.84 nM
- EC50 ([1]; 96 h, read-out: EC50 Day 4, Subject N, GT 1a, 100/100 mg dose group, Day 4 sample): 0.64 nM
- EC50 ([1]; 96 h, read-out: EC50 Day 4, Subject P, GT 1a, 50/100 mg dose group, Day 4 sample): 8.88 nM
- EC50 ([1]; 96 h, read-out: EC50 Day 4, Subject R, GT 1a, 50/100 mg dose group, Day 4 sample): 68.7 nM
- EC50 ([1]; 96 h, read-out: EC50 Day 4, Subject U, GT 1a, 50/100 mg dose group, Day 4 sample): 11.5 nM
- EC50 ([1]; 96 h, read-out: EC50 Day 4, Subject V, GT 1a, 50/100 mg dose group, Day 4 sample): 1.69 nM
- EC50 ([1]; 96 h, read-out: EC50 Day 4, Subject W, GT 1a, 50/100 mg dose group, Day 4 sample): 9.78 nM
- Subjects with increased EC50 values at day 4 relative to baseline ([1]; subjects with Day 4 samples amplified, includes GT 1b subject J): 7 of the 13
- Fold Change (GT 1a replicon R155G; EC50 of GT 1a R155G vs GT 1a WT): 16
- EC50 (GT 1a replicon R155G; Hepatitis C virus, GT1A): 19.2 nM
- Fold Change (GT 1a replicon R155K; EC50 of GT 1a R155K vs GT 1a WT): 43
- EC50 (GT 1a replicon R155K; Hepatitis C virus, GT1A): 51.5 nM
- Aqueous solubility (Aqueous solubility): low aqueous solubility
- Fold Change (GT 1a replicon D168V; EC50 of GT 1a D168V vs GT 1a WT): 115
- EC50 (GT 1a replicon D168V; Hepatitis C virus, GT1A): 136 nM
- EC50 (GT 1b replicon WT): 0.07 nM
- Fold Change (GT 1b replicon D168V; EC50 of GT 1b D168V vs GT 1b WT): 257
- EC50 (GT 1b replicon D168V; Hepatitis C virus, GT1B): 17.5 nM
- EC50 ([2]; 24 h, read-out: EC50 Day 1, Subject F, GT 1b, 200/100 mg dose group, Day 1 (baseline) sample): 0.04 nM
- EC50 ([2]; 24 h, read-out: EC50 Day 1, Subject J, GT 1b, 100/100 mg dose group, Day 1 (baseline) sample): 0.04 nM
- EC50 ([2]; 24 h, read-out: EC50 Day 1, Subject K, GT 1b, 100/100 mg dose group, Day 1 (baseline) sample): 0.07 nM
- EC50 ([2]; 24 h, read-out: EC50 Day 1, Subject O, GT 1b, 100/100 mg dose group, Day 1 (baseline) sample): 0.05 nM
- EC50 ([2]; 24 h, read-out: EC50 Day 1, Subject S, GT 1b, 50/100 mg dose group, Day 1 (baseline) sample): 0.06 nM
- EC50 ([2]; 96 h, read-out: EC50 Day 4, Subject J, GT 1b, 100/100 mg dose group, Day 4 sample): 15.5 nM
- EC50 shift at day 4 relative to baseline ([2]; single GT 1b subject (J), 100/100 mg dose group): 368 fold

Structure (SMILES): COc1ccc2c(O[C@@H]3C[C@H]4C(=O)N[C@]5(C(=O)O)C[C@H]5/C=C\CCCCC[C@H](NC(=O)OC5CCCC5)C(=O)N4C3)cc(-c3csc(NC(C)C)n3)nc2c1 [BILN 2061]
- Resistance conferred by the R155K mutation (HCV R155K mutation): high-level resistant

Structure (SMILES): CC[C@@H]1C[C@]1(NC(=O)[C@@H]1C[C@@H]2CN1C(=O)[C@H](C(C)(C)C)NC(=O)OCC(C)(C)CCCCc1cccc3c1CN(C3)C(=O)O2)C(=O)NS(=O)(=O)C1CC1 [vaniprevir]
- Viral load rebound in patients receiving treatment (HCV): viral load rebound

Structure (SMILES): CC(C)(C)OC(=O)N[C@H]1CCCCC/C=C\[C@@H]2C[C@@]2(C(=O)NS(=O)(=O)C2CC2)NC(=O)[C@@H]2C[C@@H](OC(=O)N3Cc4cccc(F)c4C3)CN2C1=O [danoprevir]
- Viral load rebound in patients receiving treatment (HCV): Viral load rebound
- Resistance conferred by the R155K mutation (HCV R155K mutation): high-level resistant
